In patent publication US20080125414A1, “Method of Treatment” (priority 2002, published 2008):
“And” between values parts separate entries of the source, which are not always exact repeats. Equal entries are not always repeated.

What was measured:
Assay type in all cases: in vivo
[1] = system: patients with neuropathic pain; test: Open label multicentre continuation study of devazepide (clinical assessment study); details: devazepide 1.25 mg, 2.5 mg or 5.0 mg twice daily for up to 26 weeks
Description: Patients who took part in the study had pain with a neuropathic element, and were taking regular doses of strong opioids. […] The primary objective of this study was to compare descriptive and visual analogue scale (VAS) assessments of pain and pain relief in patients with neuropathic pain. […] Devazepide treatment was continued for a period of up to six months. During the study patients were required to remain on regular doses of opioids at a dose prescribed by the investigator. Patients were assessed at clinic visits at week 1, week 2 (dose escalation) and thereafter at routine monthly clinic visits. At weekly intervals for the first eight weeks and at monthly intervals thereafter, patients recorded pain and global pain relief using VAS and descriptive pain questionnaires. The questionnaires were returned to the Investigator at the monthly visits. At each clinic visit the Investigator assessed safety and the patients' pain relief, reviewed the dosage, and decided if devazepide treatment should be continued.

[2] = system: patient undergoing opioid therapy; test: Clinical studies of devazepide in combination with an opioid (opioid dose reduction); details: for reduction of opioid dose: clinical studies, devazepide with opioid
[3] = system: patients with moderate or severe neuropathic pain; test: Multi-centre, double blind placebo controlled crossover study of devazepide as adjunctive therapy to strong opioids

CN1C(=O)[C@@H](NC(=O)c2cc3ccccc3[nH]2)N=C(c2ccccc2)c2ccccc21 [devazepide, 3s-(−) 1,3dihydro-3-(2-indolecarbonylamino)-1-methyl-5-phenyl-2H-1,4-benzodiazepin-2-one]
patients who appeared to achieve long-term pain relief ([1]; of seventeen patients, long-term = 5-26 weeks, with regular opioids): ten
daily opioid dose ([1]; several patients): markedly reduced
reduction of opioid dose ([2]; in others): ≤ 75%
reduction of opioid dose ([2]; in some cases): ≤ 95%
effect in combination with an opioid ([2]; opioid dose reduced concurrent with improved analgesia): superpotentiating
Analgesic use expressed as a percentage of pre-treatment use (sum of daily dose) ([3]; in vivo): 100% and 67%
Analgesic use expressed as a percentage of pre-treatment use (sum of daily dose) ([3]; patient ap06/05, analgesic morphine (mg), devazepide 1.25 mg twice daily for two weeks): 104%
Analgesic use expressed as a percentage of pre-treatment use (sum of daily dose) ([3]; patient ap06/05, analgesic morphine (mg), devazepide 5 mg twice daily for two weeks): 100%
Analgesic use expressed as a percentage of pre-treatment use (sum of daily dose) ([3]; patient ap06/05, analgesic tramadol (mg), devazepide 1.25 mg twice daily for two weeks): 79%
Analgesic use expressed as a percentage of pre-treatment use (sum of daily dose) ([3]; patient ap06/05, analgesic tramadol (mg), devazepide 5 mg twice daily for two weeks): 54%
Analgesic use expressed as a percentage of pre-treatment use (sum of daily dose) ([3]; patient gg01/01, analgesic co-codamol (tablets), devazepide 1.25 mg twice daily for two weeks): 106%
Analgesic use expressed as a percentage of pre-treatment use (sum of daily dose) ([3]; patient gg01/01, analgesic co-codamol (tablets), devazepide 5 mg twice daily for two weeks): 78%
Analgesic use expressed as a percentage of pre-treatment use (sum of daily dose) ([3]; patient gg03/03, analgesic morphine (mg), devazepide 1.25 mg twice daily for two weeks): 55%
Analgesic use expressed as a percentage of pre-treatment use (sum of daily dose) ([3]; patient gg03/03, analgesic morphine (mg), devazepide 5 mg twice daily for two weeks): 93%
Analgesic use expressed as a percentage of pre-treatment use (sum of daily dose) ([3]; patient ng02/02, analgesic diclofenac (mg), devazepide 1.25 mg twice daily for two weeks): 17%
Analgesic use expressed as a percentage of pre-treatment use (sum of daily dose) ([3]; patient ng02/02, analgesic diclofenac (mg), devazepide 5 mg twice daily for two weeks): 50%
Analgesic use expressed as a percentage of pre-treatment use (sum of daily dose) ([3]; patient ng02/02, analgesic morphine (mg), devazepide 1.25 mg twice daily for two weeks): 87%
Analgesic use expressed as a percentage of pre-treatment use (sum of daily dose) ([3]; patient ng02/02, analgesic morphine (mg), devazepide 5 mg twice daily for two weeks): 84%
Analgesic use expressed as a percentage of pre-treatment use (sum of daily dose) ([3]; patient ng05/05, analgesic morphine (mg), devazepide 1.25 mg twice daily for two weeks): 104%
Analgesic use expressed as a percentage of pre-treatment use (sum of daily dose) ([3]; patient ng05/05, analgesic morphine (mg), devazepide 5 mg twice daily for two weeks): 100%
Analgesic use expressed as a percentage of pre-treatment use (sum of daily dose) ([3]; patient ng05/05, analgesic paracetamol (mg), devazepide 1.25 mg twice daily for two weeks): 48%
Analgesic use expressed as a percentage of pre-treatment use (sum of daily dose) ([3]; patient ng05/05, analgesic paracetamol (mg), devazepide 5 mg twice daily for two weeks): 14%
Analgesic use expressed as a percentage of pre-treatment use (sum of daily dose) ([3]; patient sj03/03, analgesic morphine (mg), devazepide 1.25 mg twice daily for two weeks): 93%
Analgesic use expressed as a percentage of pre-treatment use (sum of daily dose) ([3]; patient sj03/03, analgesic morphine (mg), devazepide 5 mg twice daily for two weeks): 97%
Analgesic use expressed as a percentage of pre-treatment use (sum of daily dose) ([3]; patient sj03/03, analgesic morphine (ml), devazepide 1.25 mg twice daily for two weeks): 13%
Analgesic use expressed as a percentage of pre-treatment use (sum of daily dose) ([3]; patient sj03/03, analgesic morphine (ml), devazepide 5 mg twice daily for two weeks): 5%
Analgesic use expressed as a percentage of pre-treatment use (sum of daily dose) ([3]; patient sj10/73, analgesic dihydrocodeine (mg), devazepide 1.25 mg twice daily for two weeks): 100%
Analgesic use expressed as a percentage of pre-treatment use (sum of daily dose) ([3]; patient sj10/73, analgesic dihydrocodeine (mg), devazepide 5 mg twice daily for two weeks): 50%
Analgesic use expressed as a percentage of pre-treatment use (sum of daily dose) ([3]; patient sj10/73, analgesic morphine (mg), devazepide 1.25 mg twice daily for two weeks): 100%
Analgesic use expressed as a percentage of pre-treatment use (sum of daily dose) ([3]; patient sj10/73, analgesic morphine (mg), devazepide 5 mg twice daily for two weeks): 98%
Analgesic use expressed as a percentage of pre-treatment use (sum of daily dose) ([3]; patient sj10/73, analgesic paracetamol (mg), devazepide 1.25 mg twice daily for two weeks): 75%
Analgesic use expressed as a percentage of pre-treatment use (sum of daily dose) ([3]; patient sj10/73, analgesic paracetamol (mg), devazepide 5 mg twice daily for two weeks): 50%
